From patent US9040542B2, “Solid forms of gyrase inhibitor (R)-1-ethyl-3-[6-fluoro-5-[2-(1-hydroxy-1-methyl-ethyl)pryimidin-5-yl]-7-(tetrahydrofuran-2-yl)-1H-benzimidazol-2-yl]urea” (priority 2011, dated 2015)
In brackets after ≈: the same amount, converted by molar mass.

What was measured:
[1] = test system: Staphylococcus aureus ATCC 29213; assay: MIC, Protocol #1 microdilution broth; format: cell-based
[2] = test system: Enterococcus faecium ATCC 49624; assay: MIC, Protocol #1 microdilution broth; format: cell-based
[3] = test system: Bacillus cereus ATCC 14579; assay: MIC, Protocol #1 microdilution broth; format: cell-based
[4] = test system: Bacillus subtilis (168) ATCC 6051; assay: MIC, Protocol #1 microdilution broth; format: cell-based
[5] = test system: Clostridium difficile ATCC BAA-1382; assay: MIC, Protocol #3 agar dilution; format: cell-based
M. avium Far = assay: MIC, Protocol #4 Mycobacterium species; format: cell-based
N. asteroids 2039 = assay: MIC, Protocol #4 Mycobacterium species; format: cell-based
M. kansasii 303 = assay: MIC, Protocol #4 Mycobacterium species; format: cell-based
M. kansasii 316 = assay: MIC, Protocol #4 Mycobacterium species; format: cell-based
[6] = test system: M. tuberculosis H37Rv ATCC 25618; assay: MIC, Protocol #4 Mycobacterium species; format: cell-based
[7] = test system: M. tuberculosis Erdman ATCC 35801; assay: MIC, Protocol #4 Mycobacterium species; format: cell-based
[8] = test system: M. tuberculosis Erdman ATCC 35801; assay: Protocol #5 Mycobacterium tuberculosis Serum Shift MIC Assay; format: cell-based
M. abscessus BB2 = assay: MIC, Protocol #4 Mycobacterium species; format: cell-based
M. abscessus MC 5931 = assay: MIC, Protocol #4 Mycobacterium species; format: cell-based
M. abscessus MC 5605 = assay: MIC, Protocol #4 Mycobacterium species; format: cell-based
M. abscessus BB5 = assay: MIC, Protocol #4 Mycobacterium species; format: cell-based
M. abscessus MC 5960 = assay: MIC, Protocol #4 Mycobacterium species; format: cell-based
M. abscessus BB1 = assay: MIC, Protocol #4 Mycobacterium species; format: cell-based
M. abscessus LT 949 = assay: MIC, Protocol #4 Mycobacterium species; format: cell-based
M. abscessus BB10 = assay: MIC, Protocol #4 Mycobacterium species; format: cell-based
M. abscessus MC 6136 = assay: MIC, Protocol #4 Mycobacterium species; format: cell-based
M. abscessus MC 6153 = assay: MIC, Protocol #4 Mycobacterium species; format: cell-based
Enterococcus faecalis = assay: MIC90 panel, Protocol #1 microdilution broth; format: cell-based; details: 34 isolates
Streptococcus pneumoniae = assay: MIC90 panel, Protocol #1 microdilution broth; format: cell-based; details: 67 isolates
Acinetobacter baumannii = assay: MIC90 panel, Protocol 2 microdilution broth; format: cell-based; details: 12 isolates
Source text: (§1) The specific protocols used were as follows:
(§2) Drug dilutions, inoculation, MIC determination: • 1.

Enterobacter cloacae = assay: MIC90 panel, Protocol 2 microdilution broth; format: cell-based; details: 12 isolates
Source text: as §1, §2

Escherichia coli = assay: MIC90 panel, Protocol 2 microdilution broth; format: cell-based; details: 12 isolates
Source text: as §1, §2

Haemophilus influenzae = assay: MIC90 panel, Protocol 2 microdilution broth; format: cell-based; details: 55 isolates
Source text: as §1, §2

Klebsiella pneumoniae = assay: MIC90 panel, Protocol 2 microdilution broth; format: cell-based; details: 12 isolates
Source text: as §1, §2

Moraxella catarrhalis = assay: MIC90 panel, Protocol 2 microdilution broth; format: cell-based; details: 26 isolates
Source text: as §1, §2

Proteus mirabilis = assay: MIC90 panel, Protocol 2 microdilution broth; format: cell-based; details: 12 isolates
Source text: as §1, §2

Pseudomonas aeruginosa = assay: MIC90 panel, Protocol 2 microdilution broth; format: cell-based; details: 12 isolates
Source text: as §1, §2

Neisseria gonorrhoeae = assay: MIC90 panel, Protocol #3 agar dilution; format: cell-based; details: 13 isolates
Neisseria meningitidis = assay: MIC90 panel, Protocol #3 agar dilution; format: cell-based; details: 12 isolates
Clostridium perfringens = assay: microbe, parasite or virus in culture; format: cell-based
Peptostreptococcus spp. = assay: MIC90 panel, Protocol #3 agar dilution; format: cell-based; details: 11 isolates
Prevotella spp. = assay: MIC90 panel, Protocol #3 agar dilution; format: cell-based; details: 13 isolates
[9] = test system: Moraxella catarrhalis ATCC 25238; assay: MIC, Protocol 2 microdilution broth, Gram negatives; design: unit not given beside the values

SMILES: CCNC(=O)Nc1nc2cc(-c3cnc(C(C)(C)O)nc3)c(F)c([C@H]3CCCO3)c2[nH]1 [Compound 24, 1-ethyl-3-[6-fluoro-5-[2-(1-hydroxy-1-methyl-ethyl)pyrimidin-5-yl]-7-[(2R)-tetrahydrofuran-2-yl]-1H-benzimidazol-2-yl]urea]
- MIC ([1]; Staphylococcus aureus ATCC 29213): 0.021 µg/mL (≈ 0.049 µM)
- MIC ([1]; Staphylococcus aureus ATCC 29213 with Human Serum): 0.15 µg/mL (≈ 0.35 µM)
- MIC ([1]; Staphylococcus aureus ATCC 29213 with Mouse Serum): 0.5 µg/mL (≈ 1.17 µM)
- MIC ([1]; Staphylococcus aureus ATCC 29213 with Rat Serum): 0.18 µg/mL (≈ 0.42 µM)
- MIC ([2]; Enterococcus faecium ATCC 49624): 0.11 µg/mL (≈ 0.257 µM)
- MIC ([2]; Enterococcus faecium ATCC 49624 with Laked Horse Blood): 0.11 µg/mL (≈ 0.257 µM)
- MIC [3]: 0.031 µg/mL (≈ 0.0724 µM)
- MIC [4]: 4 µg/mL (≈ 9.34 µM)
- MIC [5]: 0.38 µg/mL (≈ 0.887 µM)
- MIC (M. avium Far): 0.23 µg/mL (≈ 0.537 µM)
- MIC (N. asteroids 2039): 1 µg/mL (≈ 2.33 µM)
- MIC (M. kansasii 303): 0.03 µg/mL (≈ 0.07 µM)
- MIC (M. kansasii 316): 0.06 µg/mL (≈ 0.14 µM)
- MIC [6]: 0.015 µg/mL (≈ 0.035 µM)
- MIC [7]: 0.06 µg/mL (≈ 0.14 µM)
- MIC ([8]; M. tuberculosis Erdman ATCC 35801): 0.03 µg/mL
- MIC ([8]; M. tuberculosis Erdman ATCC 35801 with Mouse Serum): 0.5 µg/mL
- MIC (M. abscessus BB2): 1 µg/mL (≈ 2.33 µM)
- MIC (M. abscessus MC 5931): 0.5 µg/mL (≈ 1.17 µM)
- MIC (M. abscessus MC 5605): 1.5 µg/mL (≈ 3.5 µM)
- MIC (M. abscessus BB5): 0.5 µg/mL (≈ 1.17 µM)
- MIC (M. abscessus MC 5960): 0.5 µg/mL (≈ 1.17 µM)
- MIC (M. abscessus BB1): 2 µg/mL (≈ 4.67 µM)
- MIC (M. abscessus LT 949): 1 µg/mL (≈ 2.33 µM)
- MIC (M. abscessus BB10): 0.015 µg/mL (≈ 0.035 µM)
- MIC (M. abscessus MC 6136): 0.5 µg/mL (≈ 1.17 µM)
- MIC (M. abscessus MC 6153): 1 µg/mL (≈ 2.33 µM)
- MIC90 (Enterococcus faecalis): 0.06 µg/mL (≈ 0.14 µM)
- MIC Range (Enterococcus faecalis): 0.015 to 0.12 µg/mL
- MIC90 (Streptococcus pneumoniae): 0.015 µg/mL (≈ 0.035 µM)
- MIC Range (Streptococcus pneumoniae): 8 to 30 ng/mL
- MIC90 (Acinetobacter baumannii): > 8 µg/mL
- MIC90 (Enterobacter cloacae): > 8 µg/mL
- MIC90 (Escherichia coli): > 8 µg/mL
- MIC90 (Haemophilus influenzae): 1 µg/mL (≈ 2.33 µM)
- MIC Range (Haemophilus influenzae): 0.06 to 2 µg/mL
- MIC90 (Klebsiella pneumoniae): > 8 µg/mL
- MIC90 (Moraxella catarrhalis): 0.03 µg/mL (≈ 0.07 µM)
- MIC Range (Moraxella catarrhalis): ≦0.004-0.03 μg/ml
- MIC90 (Proteus mirabilis): > 8 µg/mL
- MIC90 (Pseudomonas aeruginosa): > 8 µg/mL
- MIC90 (Neisseria gonorrhoeae): 0.25 µg/mL (≈ 0.583 µM)
- MIC Range (Neisseria gonorrhoeae): 0.12 to 0.25 µg/mL
- MIC90 (Neisseria meningitidis): 0.03 µg/mL (≈ 0.07 µM)
- MIC Range (Neisseria meningitidis): 8 to 60 ng/mL
- MIC90 (Clostridium perfringens): 0.5 µg/mL (≈ 1.17 µM)
- MIC Range (Clostridium perfringens; 12 isolates, Protocol 3): 0.12 to 0.5 µg/mL
- MIC90 (Peptostreptococcus spp.): > 16 µg/mL
- MIC90 (Prevotella spp.): 16 µg/mL (≈ 37.3 µM)
- MIC Range (Prevotella spp.): 0.06 to 16 µg/mL
- MIC [9]: ≦0.016
